Measured values as given in PubChem BioAssay AID1902 (Broad Institute, 2009).
pEC50: −log10 of the molar value. Activity calls are given as the source filed them.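 The calls were made as follows: active = EC50 no more than a set limit of log units above the highest dose; inactive = the rest.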

What follows are molecules tested against S. pyogenes SKKanGAS, kanamycin survival, BacTiterGlo, 6 h (assay: SKKanGAS survival reduction under kanamycin, dose response, streptokinase promoter inhibitor project, SKKanGAS strain, luminescence, dose confirmation (AID 1902);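 also: lower survival reflects blocked streptokinase promoter driving kanamycin resistance gene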).

| SMILES | pEC50 | EC50 |
| --- | --- | --- |
| Cn1c(O)c(N=NC(=S)Nc2ccccc2F)c2cc(S(=O)(=O)N3CCOCC3)ccc21 | 5.29 |  |
| N#CC1=C(c2ccccc2)/C(=C/c2ccccc2)OC1=O | 5.00 |  |
| O=[N+]([O-])c1cc(C(F)(F)F)ccc1NCCNC(=S)Nc1ccc(Cl)cc1 | 5.32 |  |
| O=C(CC1SC(=Nc2ccccc2)N(CCc2c[nH]c3ccccc23)C1=O)Nc1ccccc1F (stereo unspecified) | 5.14 |  |
| NC(=O)NC(=O)CSc1nc2sc(-c3ccccc3)cc2c(=O)n1-c1ccccc1 | 5.93 |  |
| CC(NS(=O)(=O)OCC(Cl)(Cl)Cl)c1ccc(C(C)(C)C)cc1 (stereo unspecified) | 5.33 |  |
| CC(C)C[C@H](NC(=O)c1nc[nH]c1C(=O)N[C@@H](CC(C)C)C(=O)OC(C)(C)C)C(=O)OCc1ccccc1 | 5.84 |  |
| CC(C)=CCc1c(-c2ccc(O)cc2O)oc2cc3c(c(O)c2c1=O)C=CC(C)(C)O3 | 5.80 |  |
| O=C(Nc1cc([N+](=O)[O-])ccc1O)c1cccc(NC(=O)c2ccco2)c1 | 5.56 |  |
| CCNc1nc(Oc2c(Cl)cccc2Cl)cc(C(F)(F)F)n1 | 5.18 |  |
| CC1(C)CN=C(Nc2nc3ccccc3s2)S1 | 5.17 |  |
| COc1ccc(-n2nc3cc(C)c(NC(=O)C(C)C)cc3n2)cc1 |  | > 15 µM (inactive) |
| S=C(Nc1ccc(Cl)cc1)c1nc2ccccc2[nH]1 | 6.74 |  |
| COc1cccc(/C=N/Nc2ccc([N+](=O)[O-])cn2)c1O | 6.20 |  |
| COCCn1c(-c2cc(OC)c(OC)c(OC)c2)nc2oc3cc(OC)ccc3c(=O)c2c1=O |  | > 15 µM (inactive) |
| Fc1cc(F)c(C2SCCN2C(=S)Nc2cccc(C(F)(F)F)c2)c(F)c1 (stereo unspecified) | 5.08 |  |
| O=C(NNC(=S)NC(=O)c1cccc([N+](=O)[O-])c1)c1ccc(Br)cc1 | 5.68 |  |
| COc1cccc(NC(=S)NN=C2CCCCCC2)c1 | 5.75 |  |
| Cc1ccccc1N1CCN(S(=O)(=O)c2nnc(NC(=O)c3ccco3)s2)CC1 | 5.35 |  |
| CCc1nc2c3cnn(-c4cc(Cl)ccc4C)c3ncn2n1 | 4.89 |  |
| Cc1cccc(NCc2nc3ccccc3n2Cc2ccccc2)c1 | 5.56 |  |
| O=C(O)CC/C(=C\c1cc2c(cc1Br)OCO2)c1nc2ccccc2s1 | 4.98 |  |
| Cc1nn(-c2ccccc2)c2sc(-c3n[nH]c(=S)o3)cc12 | 5.40 |  |
| Cc1ccc(S(=O)(=O)Nc2cc(Cl)c(O)c3ncccc23)cc1 | 5.15 |  |
| COc1cccc(C(=O)Oc2ccc(/C=N/Nc3ccc(C(=O)O)cc3)cc2OC)c1 | 5.21 |  |
| Cc1ccc(C)c(NC(=S)N/N=C2/CCCCc3ccccc32)c1 | 6.19 |  |

| SMILES | pEC50 | EC50 |
| --- | --- | --- |
| O=C(NCc1ccc(C(F)(F)F)cc1)c1ccc2c(c1)S(=O)(=O)c1ccccc1C2=O |  | > 15 µM (inactive) |
| CCOC(=O)c1sc2nc3c(SCC(=O)O)cc(C(=O)c4cc(F)ccc4O)cn3c(=O)c2c1C | 5.68 |  |
| CN1CCN(C(=O)C(=O)c2cn(CC(=O)N3CCCC3)c3ccccc23)CC1 |  | > 15 µM (inactive) |
| COc1ccc(-c2csc(NC(=S)NC(=O)c3cccs3)n2)cc1OC | 4.86 |  |
| CC(Oc1ccc(F)cc1)C(=O)Nc1ccccc1N1CCCCC1 (stereo unspecified) | 5.30 |  |
| c1ccc(-c2nc(N3CCCCCC3)c3ccccc3n2)nc1 | 5.85 |  |
| COc1ccc(-c2nc(/C=C3\C(C)=Nc4ccccc43)c(O)o2)cc1 | 5.46 |  |
| CCc1ccc(OCC(=O)NC(NC(=S)Nc2ccc(C)cc2C)C(Cl)(Cl)Cl)cc1 (stereo unspecified) | 5.35 |  |
| Cc1ccc(NC2=NCC(Cc3ccc(Br)cc3)S2)cc1 (stereo unspecified) | 6.25 |  |
| O=C1c2ccccc2C2=Nc3ccccc3SC(c3ccccc3F)C12 (stereo unspecified) | 5.52 |  |
| C/C(=N/NC(=O)CNC(=O)c1cccnc1)c1cccc([N+](=O)[O-])c1 |  | > 15 µM (inactive) |
| Cc1nc2c(-c3ccccc3)c(C)[nH]n2c(=O)c1Cc1ccccc1 | 5.20 |  |
| Cn1c(=O)c(C(=O)NNC(=O)c2ccccc2Br)c(O)c2ccccc21 | 5.12 |  |
| O=[N+]([O-])c1ccc(O)c(-c2cc(C(F)(F)F)nc(-c3ccccc3)n2)c1 | 6.69 |  |
| Cc1cc(N2C(=O)C(O)=C(C(=O)c3cc4ccccc4o3)C2c2cccc(Cl)c2)no1 (stereo unspecified) | 5.88 |  |
| Nc1nc(Nc2ccc(Cl)cc2)nc(NCc2ccco2)c1[N+](=O)[O-] | 5.18 |  |
| O[C@@H]1CCCN2CCc3c([nH]c4ccccc34)[C@H]12 |  | > 15 µM (inactive) |
| CC(=O)N(CCC(Cc1ccccc1)c1ccc2c(c1)OCO2)Cc1ccc(Cl)cc1 (stereo unspecified) | 5.47 |  |
| O=C(/C=C/c1cccc([N+](=O)[O-])c1)c1ccc([N+](=O)[O-])o1 | 5.54 |  |
| CCN(CC)C(=S)SCC(=O)Nc1nc(-c2ccccc2)c(-c2ccccc2)o1 | 5.90 |  |
| CCOC(=O)c1c(-c2ccc(C)cc2)csc1NC(=O)CCN1CCOCC1 |  | > 15 µM (inactive) |
| Cc1ccccc1NC1=C/C(=N\S(=O)(=O)c2cccs2)c2ccccc2C1=O | 5.84 |  |
| CCCCCCCCCCn1c2c(c(=N)c3c1CCC3)CCC2 | 5.03 |  |
| Cc1cccc(Cn2nc(-n3cccc3)c3c(C)cc(C)nc32)c1 | 5.17 |  |
| Cc1onc(-c2ccccc2)c1C(=O)NNC(=S)NC(=O)c1ccc2c(c1)OCO2 | 6.23 |  |
| Nc1nc(CN2CCN(c3ccc(F)cc3)CC2)nc(N2CCCc3ccccc32)n1 | 6.75 |  |

| SMILES | pEC50 | EC50 |
| --- | --- | --- |
| O=[N+]([O-])/C=C/c1c(OCc2ccccc2)ccc2ccccc12 | 5.79 |  |
| CCOC(=O)N1CCN(C(=O)c2ccc3c(c2)NC(=O)/C(=C/c2ccccc2)S3)CC1 | 5.80 |  |
| COC(=O)C1=NN(C(=O)c2cccc(Br)c2)C(O)(c2ccc(Cl)cc2)C1 (stereo unspecified) | 5.89 |  |
| CCOc1ccc(C(=O)N/N=C(\c2ccccc2)c2ccccn2)cc1 | 5.24 |  |
| CC(C)(C)c1ccc(OCC(=O)Nc2ccc(C(=O)Nc3ccccc3C(=O)O)cc2)cc1 | 5.81 |  |
| O=c1c2ccccc2[se]n1-c1ccccc1 | 5.82 |  |
| CCc1ccc(-c2cc(C)no2)cc1S(=O)(=O)Nc1cccc(CN2CCCC2)c1 |  | > 15 µM (inactive) |
| Cc1c(Cl)c(C(F)F)nn1CC(=O)NC1C(=O)N2C(C(=O)O)=C(CSc3nnnn3C)CSC12 (stereo unspecified) | > 7.22 |  |
| COc1cc(C)ccc1NC(=O)Cc1csc(NC(=O)Nc2ccccc2OC)n1 | 4.81 |  |
| CC1(C)N=C(N)N=C(N)N1c1ccc(Oc2ccc(Cl)cc2)c(Cl)c1 | > 7.22 |  |
| CCCCCCCCCCC(=O)NNC(=O)c1c(O)c2ccccc2n(CC)c1=O | 6.73 |  |
| COc1ccc(NC(=O)c2cc(-c3cc(C)cc(C)c3O)n[nH]2)cc1Cl | 5.65 |  |
| Cc1csc(NC(=O)c2c(O)c3c(n(CC(C)C)c2=O)CCCC3)n1 | 4.96 |  |
| COc1ccc(NC(=O)CN(C)C(=O)/C=C/c2cn(-c3ccccc3)nc2-c2ccc(C)cc2)cc1 | 5.06 |  |
| O=C(Nc1cccc(-c2ccc(N3CCOCC3)nn2)c1)c1ccccc1Cl |  | > 15 µM (inactive) |
| COc1cccc(C(=O)NC(=S)Nc2ccccc2N2CCCCC2)c1 |  | > 15 µM (inactive) |
| Clc1ccc(-[n+]2c(-c3cccc(Br)c3)[nH]c3nc4ccccc4nc32)cc1 | 5.78 |  |
| Fc1ccccc1CNc1cc(Cl)cc(Cl)c1 | 4.90 |  |
| COc1ccc(/C=N\NC(=O)c2cc(O)c(O)c(O)c2)cc1COc1ccc(C(=O)OCC(C)C)cc1 | 5.14 |  |
| COC(=O)c1ccc(C(=O)OC)c(NC(=O)CN(C)Cc2cccc(Cl)c2Cl)c1 | 5.11 |  |
| COC(=O)/C=C1\SC(=Nc2ccc(Cl)c(Cl)c2)NC1=O | 5.05 |  |
| CC1=Nc2ccccc2/C1=C\c1nc(-c2ccc(F)cc2)oc1O | 5.12 |  |
| O=S(=O)(Nc1ccc(-n2cccc2)cc1)c1ccc(Cl)c(Cl)c1 | 5.21 |  |
| COc1cc([N+](=O)[O-])cc(/C=N/NC(=O)c2cccnc2)c1O | 5.58 |  |
